Assay results reported in PubChem BioAssay (NCI).
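How tested: cells in 96-well plates exposed to compound for 48 hours at five concentrations. The concentration for full growth arrest is given as TGI.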

Assays:
Test in all cases: NCI anticancer screen, dose series, 48 h
XF 498 CNS = system: XF 498 CNS
LXFL 529 NSCLC = system: LXFL 529 NSCLC
DLD-1 colon = system: DLD-1 colon
DMS 273 small cell lung = system: DMS 273 small cell lung
HOP-18 NSCLC = system: HOP-18 NSCLC
KM20L2 colon = system: KM20L2 colon

Row | SMILES | TGI (XF 498 CNS) [µM] | TGI (LXFL 529 NSCLC) [µM] | TGI (DLD-1 colon) [µM] | TGI (DMS 273 small cell lung) [µM] | TGI (HOP-18 NSCLC) [µM] | TGI (KM20L2 colon) [µM]
1 | Cc1ccc(SSCCCCCS(=O)O)cc1 | 49.6 | 28.5 | > 100 |  |  | 
2 | O=S(O)c1cc(Cl)cc(Cl)c1OCc1ccccc1 | > 100 | > 100 | > 100 |  |  | 
3 | O=C(NNC(=O)c1nsc2ccccc12)c1ccc(Cl)cc1 |  | 39.8 |  | 25.1 | 27.4 | 53.8
4 | Nc1nc(=O)n(CC(O)CO)s1 (stereo not given) |  | > 100 | > 100 | > 100 | > 100 | > 100
